The text below walks through data of patent US20240051931A1, “HDAC INHIBITORS” (University of Pittsburgh - Of the Commonwealth System of …, priority 2020, published 2024).

With `CC(C)NC(=O)ONC(=O)C1CCc2cc(NC(=O)c3ccc(-c4ccccc4)cc3)ccc2O1` (centres unmarked) [Compound 15, 6-([1,1′-Biphenyl]-4-carboxamido)-N-((isopropylcarbamoyl)oxy)chromane-2-carboxamide], the melting point is 200 °C (dec.).
The same measure for `C#Cc1ccc2c(c1)CCC(C(=O)NO)O2` (centres unmarked) [Compound 19, 6-ethynyl-N-hydroxychromane-2-carboxamide]: 161 to 163 °C.
The compound `O=C(NO)C1CCc2cc(C#CCOc3ccc(F)cc3)ccc2O1` (centres unmarked) [Compound 25, 6-(3-(4-Fluorophenoxy)prop-1-yn-1-yl)-N-hydroxychromane-2-carboxamide] registered a melting point of 149 to 151 °C.
Compound `O=C(NO)C1CCc2cc(CCCOc3ccc(F)cc3)ccc2O1` (centres unmarked) [Compound 31, 6-(3-(4-Fluorophenoxy)propyl)-N-hydroxychromane-2-carboxamide] displayed a melting point of 145 to 147 °C.
The figure for `O=C(NO)C1CCc2cc(C#CCOC(=O)N3CCc4ccccc4C3)ccc2O1` (centres unmarked) [Compound 36, 3-(2-(Hydroxycarbamoyl)chroman-6-yl)prop-2-yn-1-yl 3,4-dihydroisoquinoline-2(1H)-carboxylate] is 90 to 92 °C; for `O=C(NO)C1CCc2cc(CCCOC(=O)N3CCc4ccccc4C3)ccc2O1` (centres unmarked) [Compound 40, 3-(2-(Hydroxycarbamoyl)chroman-6-yl)propyl 3,4-dihydroisoquinoline-2(1H)-carboxylate] it is 82 to 84 °C.
The figure for `O=C(NO)C1CCc2cc(-c3ccc(-c4ccccc4)cc3)ccc2O1` (centres unmarked) [Compound 44a, 6-([1,1′-Biphenyl]-4-yl)-N-hydroxychromane-2-carboxamide] is 218 to 219 °C; for `O=C(NO)C1CCc2cc(-c3ccc(F)cc3)ccc2O1` (centres unmarked) [Compound 44b, 6-(4-Fluorophenyl)-N-hydroxychromane-2-carboxamide] it is 177 to 179 °C.
Compound `O=C(NO)C1CCc2cc(-c3ccc(Cl)c(Cl)c3)ccc2O1` (centres unmarked) [Compound 44c, 6-(3,4-Dichlorophenyl)-N-hydroxychromane-2-carboxamide] displayed a melting point of 89 to 91 °C.
The figure for `O=C(NO)C1CCc2ccc(OCc3ccc(C(F)(F)F)cc3)cc2O1` (centres unmarked) [Compound 50a, N-Hydroxy-7-((4-(trifluoromethyl)benzyl)oxy)chromane-2-carboxamide] is 148 to 151 °C; for `O=C(NO)C1CCc2ccc(OCCOc3ccc(F)cc3)cc2O1` (centres unmarked) [Compound 50b, 7-(2-(4-Fluorophenoxy)ethoxy)-N-hydroxychromane-2-carboxamide] it is 144 to 147 °C; for `O=C(NO)C1CCc2ccc(OCc3ccccn3)cc2O1` (centres unmarked) [Compound 50c, N-Hydroxy-7-(pyridin-2-ylmethoxy)chromane-2-carboxamide] it is 125 to 128 °C.
The same measure for `O=C(NO)[C@@H]1CCc2ccc(OCc3ccccc3Cl)cc2O1` [Compound 50d, (S)-7-((2-Chlorobenzyl)oxy)-N-hydroxychromane-2-carboxamide]: 141 to 147 °C; for `O=C(NO)C1CCc2ccc(O)cc2O1` (centres unmarked) [Compound 55, N,7-Dihydroxychromane-2-carboxamide]: 174 to 176 °C.
With `O=C(NO)C1CCc2ccc(-c3ccc(Cl)c(Cl)c3)cc2O1` (centres unmarked) [Compound 58a, 7-(3,4-Dichlorophenyl)-N-hydroxychromane-2-carboxamide], the melting point was in the range of 167 to 169 °C.
The same measure for `Cn1ccc2cc(-c3ccc4c(c3)OC(C(=O)NO)CC4)ccc21` (centres unmarked) [Compound 58b, N-Hydroxy-7-(1-methyl-1H-indol-5-yl)chromane-2-carboxamide]: 155 to 158 °C; for `COc1ccc(-c2ccc3c(c2)OC(C(=O)NO)CC3)cc1` (centres unmarked) [Compound 58c, N-Hydroxy-7-(4-methoxyphenyl)chromane-2-carboxamide]: 181 to 183 °C.
The same measure for `CN1CC(C(=O)NO)Oc2ccccc21` (centres unmarked) [Compound 78, N-Hydroxy-4-methyl-3,4-dihydro-2H-benzo[b][1,4]oxazine-2-carboxamide]: 118 to 120 °C.
The figure for `O=C(NO)C1CCc2cc(Cl)ccc2O1` (centres unmarked) [Compound 90, 6-Chloro-N-hydroxychromane-2-carboxamide] is 160 to 162 °C; for `O=C(Nc1cccc2c1O[C@H](C(=O)NO)CC2)OCc1ccccc1Cl` [−11L, 2-Chlorobenzyl (S)-(2-(hydroxycarbamoyl)chroman-8-yl)carbamate] it is 176 to 178 °C.
